ChEMBL document CHEMBL4396916, “Novel potent substituted 4-amino-2-thiopyrimidines as dual VEGFR-2 and BRAF kinase inhibitors” (Eur J Med Chem, 2019)

Experiments:
[1] = tested on: BT-549; experiment: Growth inhibition of human BT549 cells at 10 uM incubated for 48 hrs by sulforhodamine B assay relative to control; format: functional; details: BT-549, 48 h, read-out: GI
[2] = tested on: HOP-92; experiment: Growth inhibition of human HOP92 cells at 10 uM incubated for 48 hrs by sulforhodamine B assay relative to control; format: functional; details: HOP-92, 48 h, read-out: GI
[3] = tested on: HCT-116; experiment: Growth inhibition of human HCT116 cells at 10 uM incubated for 48 hrs by sulforhodamine B assay relative to control; format: functional; details: HCT-116, 48 h, read-out: GI
[4] = tested on: NCI-H226; experiment: Growth inhibition of human NCI-H226 cells at 10 uM incubated for 48 hrs by sulforhodamine B assay relative to control; format: functional; details: NCI-H226, 48 h, read-out: GI
[5] = tested on: MDA-MB-231; experiment: Growth inhibition of human MDA-MB-231 cells at 10 uM incubated for 48 hrs by sulforhodamine B assay relative to control; format: functional; details: MDA-MB-231, 48 h, read-out: GI
[6] = tested on: UO-31; experiment: Growth inhibition of human UO31 cells at 10 uM incubated for 48 hrs by sulforhodamine B assay relative to control; format: functional; details: UO-31, 48 h, read-out: GI
[7] = tested on: MDA-MB-435; experiment: Growth inhibition of human MDA-MB-435 cells at 10 uM incubated for 48 hrs by sulforhodamine B assay relative to control; format: functional; details: MDA-MB-435, 48 h, read-out: GI
[8] = molecular target: Vascular endothelial growth factor receptor 2 (Homo sapiens, UniProt P35968); experiment: Inhibition of human N-terminal GST tagged VEGFR-2 expressed in baculovirus infected Sf9 cells using poly (Glu,Tyr) 4:1 as substrate in presence of ATP by Kinase-Glo luminescence assay
[9] = tested on: LOX IMVI; experiment: Growth inhibition of human LOXIMVI cells at 10 uM incubated for 48 hrs by sulforhodamine B assay relative to control; format: functional; details: read-out: GI
[10] = tested on: Hs-578T; experiment: Growth inhibition of human Hs578T cells at 10 uM incubated for 48 hrs by sulforhodamine B assay relative to control; format: functional; details: read-out: GI
[11] = tested on: RPMI-8226; experiment: Growth inhibition of human RPMI8226 cells at 10 uM incubated for 48 hrs by sulforhodamine B assay relative to control; format: functional; details: RPMI-8226, 48 h, read-out: GI
[12] = tested on: NCI/ADR-RES; experiment: Growth inhibition of human NCI/ADR-RES cells at 10 uM incubated for 48 hrs by sulforhodamine B assay relative to control; format: functional; details: read-out: GI
[13] = tested on: UACC-62; experiment: Growth inhibition of human UACC62 cells at 10 uM incubated for 48 hrs by sulforhodamine B assay relative to control; format: functional; details: UACC-62, 48 h, read-out: GI
[14] = tested on: MCF7; experiment: Cytotoxicity against human MCF7 cells expressing VEGFR2 and wild type BRAF measured after 48 hrs by sulforhodamine B assay; format: functional, cell-based; details: MCF7, 48 h
[15] = tested on: CAKI-1; experiment: Growth inhibition of human Caki1 cells at 10 uM incubated for 48 hrs by sulforhodamine B assay relative to control; format: functional; details: CAKI-1, 48 h, read-out: GI
[16] = tested on: EKVX; experiment: Growth inhibition of human EKVX cells at 10 uM incubated for 48 hrs by sulforhodamine B assay relative to control; format: functional; details: read-out: GI
[17] = tested on: CCRF-CEM; experiment: Growth inhibition of human CCRF-CEM cells at 10 uM incubated for 48 hrs by sulforhodamine B assay relative to control; format: functional; details: read-out: GI
[18] = tested on: SN12C; experiment: Growth inhibition of human SN12C cells at 10 uM incubated for 48 hrs by sulforhodamine B assay relative to control; format: functional; details: read-out: GI
[19] = tested on: SNB-19; experiment: Growth inhibition of human SNB19 cells at 10 uM incubated for 48 hrs by sulforhodamine B assay relative to control; format: functional; details: SNB-19, 48 h, read-out: GI
[20] = tested on: SF-539; experiment: Growth inhibition of human SF539 cells at 10 uM incubated for 48 hrs by sulforhodamine B assay relative to control; format: functional; details: SF-539, 48 h, read-out: GI
[21] = tested on: SR; experiment: Growth inhibition of human SR cells at 10 uM incubated for 48 hrs by sulforhodamine B assay relative to control; format: functional; details: read-out: GI
[22] = tested on: MCF7; experiment: Growth inhibition of human MCF7 cells at 10 uM incubated for 48 hrs by sulforhodamine B assay relative to control; format: functional; details: MCF7, 48 h, read-out: GI
[23] = tested on: HCT-15; experiment: Growth inhibition of human HCT15 cells at 10 uM incubated for 48 hrs by sulforhodamine B assay relative to control; format: functional; details: HCT-15, 48 h, read-out: GI
[24] = tested on: MDA-MB-468; experiment: Growth inhibition of human MDA-MB-468 cells at 10 uM incubated for 48 hrs by sulforhodamine B assay relative to control; format: functional; details: MDA-MB-468, 48 h, read-out: GI
[25] = tested on: IGROV-1; experiment: Growth inhibition of human IGROV1 cells at 10 uM incubated for 48 hrs by sulforhodamine B assay relative to control; format: functional; details: IGROV-1, 48 h, read-out: GI
[26] = tested on: A498; experiment: Growth inhibition of human A498 cells at 10 uM incubated for 48 hrs by sulforhodamine B assay relative to control; format: functional; details: A498, 48 h, read-out: GI
[27] = tested on: KM12; experiment: Growth inhibition of human KM12 cells at 10 uM incubated for 48 hrs by sulforhodamine B assay relative to control; format: functional; details: KM12, 48 h, read-out: GI
[28] = tested on: OVCAR-8; experiment: Growth inhibition of human OVCAR8 cells at 10 uM incubated for 48 hrs by sulforhodamine B assay relative to control; format: functional; details: OVCAR-8, 48 h, read-out: GI
[29] = tested on: HT-29; experiment: Growth inhibition of human HT-29 cells at 10 uM incubated for 48 hrs by sulforhodamine B assay relative to control; format: functional; details: HT-29, 48 h, read-out: GI
[30] = tested on: SK-MEL-5; experiment: Growth inhibition of human SK-MEL-5 cells at 10 uM incubated for 48 hrs by sulforhodamine B assay relative to control; format: functional; details: SK-MEL-5, 48 h, read-out: GI
[31] = tested on: MOLT-4; experiment: Growth inhibition of human MOLT4 cells at 10 uM incubated for 48 hrs by sulforhodamine B assay relative to control; format: functional; details: MOLT-4, 48 h, read-out: GI
[32] = tested on: K562; experiment: Growth inhibition of human K562 cells at 10 uM incubated for 48 hrs by sulforhodamine B assay relative to control; format: functional; details: K562, 48 h, read-out: GI
[33] = tested on: RXF 393; experiment: Growth inhibition of human RXF393 cells at 10 uM incubated for 48 hrs by sulforhodamine B assay relative to control; format: functional; details: RXF 393, 48 h, read-out: GI
[34] = tested on: NCI-H460; experiment: Growth inhibition of human NCI-H460 cells at 10 uM incubated for 48 hrs by sulforhodamine B assay relative to control; format: functional; details: NCI-H460, 48 h, read-out: GI
[35] = tested on: T47D; experiment: Growth inhibition of human T47D cells at 10 uM incubated for 48 hrs by sulforhodamine B assay relative to control; format: functional; details: read-out: GI
[36] = tested on: OVCAR-3; experiment: Growth inhibition of human OVCAR3 cells at 10 uM incubated for 48 hrs by sulforhodamine B assay relative to control; format: functional; details: OVCAR-3, 48 h, read-out: GI
[37] = tested on: NCI-H522; experiment: Growth inhibition of human NCI-H522 cells at 10 uM incubated for 48 hrs by sulforhodamine B assay relative to control; format: functional; details: NCI-H522, 48 h, read-out: GI
[38] = tested on: NCI-H23; experiment: Growth inhibition of human NCI-H23 cells at 10 uM incubated for 48 hrs by sulforhodamine B assay relative to control; format: functional; details: NCI-H23, 48 h, read-out: GI
[39] = tested on: PC-3; experiment: Growth inhibition of human PC3 cells at 10 uM incubated for 48 hrs by sulforhodamine B assay relative to control; format: functional; details: PC-3, 48 h, read-out: GI
[40] = tested on: SNB-75; experiment: Growth inhibition of human SNB75 cells at 10 uM incubated for 48 hrs by sulforhodamine B assay relative to control; format: functional; details: SNB-75, 48 h, read-out: GI
[41] = tested on: M14; experiment: Growth inhibition of human M14 cells at 10 uM incubated for 48 hrs by sulforhodamine B assay relative to control; format: functional; details: M14, 48 h, read-out: GI
[42] = tested on: MCF7; experiment: Inhibition of VEGFR2 level in human MCF7 cells at 10 uM measured after 48 hrs by ELISA relative to control; format: functional; details: MCF7, 48 h
[43] = tested on: OVCAR-4; experiment: Growth inhibition of human OVCAR4 cells at 10 uM incubated for 48 hrs by sulforhodamine B assay relative to control; format: functional; details: OVCAR-4, 48 h, read-out: GI
[44] = tested on: T47D; experiment: Cytotoxicity against human T47D cells expressing wild type BRAF measured after 48 hrs by sulforhodamine B assay; format: functional, cell-based

Vascular endothelial growth factor receptor 2, sequence (P35968 whole entry): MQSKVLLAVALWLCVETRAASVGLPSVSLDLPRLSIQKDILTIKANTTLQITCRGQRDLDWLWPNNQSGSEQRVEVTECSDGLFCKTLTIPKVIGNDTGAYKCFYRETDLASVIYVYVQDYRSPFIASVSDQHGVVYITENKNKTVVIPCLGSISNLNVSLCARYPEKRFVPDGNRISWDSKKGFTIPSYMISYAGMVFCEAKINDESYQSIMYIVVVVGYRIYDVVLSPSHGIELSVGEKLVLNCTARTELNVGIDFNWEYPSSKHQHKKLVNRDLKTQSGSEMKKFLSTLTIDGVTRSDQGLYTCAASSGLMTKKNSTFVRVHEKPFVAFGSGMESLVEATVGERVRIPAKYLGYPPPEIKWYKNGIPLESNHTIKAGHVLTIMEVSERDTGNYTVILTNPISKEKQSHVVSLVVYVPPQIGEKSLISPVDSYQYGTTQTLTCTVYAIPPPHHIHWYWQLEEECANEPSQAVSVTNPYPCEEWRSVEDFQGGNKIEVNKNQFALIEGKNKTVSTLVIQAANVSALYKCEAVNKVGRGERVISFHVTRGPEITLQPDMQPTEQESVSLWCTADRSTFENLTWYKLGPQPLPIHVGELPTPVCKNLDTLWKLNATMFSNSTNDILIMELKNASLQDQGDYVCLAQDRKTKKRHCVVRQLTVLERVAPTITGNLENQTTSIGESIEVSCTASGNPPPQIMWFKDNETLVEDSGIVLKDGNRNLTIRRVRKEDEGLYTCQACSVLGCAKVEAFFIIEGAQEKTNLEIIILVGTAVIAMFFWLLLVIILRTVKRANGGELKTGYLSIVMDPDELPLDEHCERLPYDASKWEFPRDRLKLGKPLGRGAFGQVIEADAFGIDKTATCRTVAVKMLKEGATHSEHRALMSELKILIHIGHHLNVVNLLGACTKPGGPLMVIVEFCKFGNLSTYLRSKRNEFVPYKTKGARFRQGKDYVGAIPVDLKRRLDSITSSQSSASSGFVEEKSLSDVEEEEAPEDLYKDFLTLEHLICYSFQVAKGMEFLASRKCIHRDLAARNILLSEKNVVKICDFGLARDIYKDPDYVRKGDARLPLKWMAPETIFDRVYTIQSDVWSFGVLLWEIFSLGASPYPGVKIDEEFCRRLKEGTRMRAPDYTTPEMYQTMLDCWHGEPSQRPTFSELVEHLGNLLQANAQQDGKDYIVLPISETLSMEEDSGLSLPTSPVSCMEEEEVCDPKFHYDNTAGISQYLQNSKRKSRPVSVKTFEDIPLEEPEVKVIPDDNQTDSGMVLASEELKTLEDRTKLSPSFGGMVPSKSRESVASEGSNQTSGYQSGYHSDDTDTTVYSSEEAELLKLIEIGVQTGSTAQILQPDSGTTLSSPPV

IC50 [8]: 0.42 µM
Structure (SMILES): COc1ccc(C(=O)CSc2nccc(Nc3cccc(C(C)=O)c3)n2)cc1
inhibition of growth at 10 µM [1]: 27%
inhibition of growth at 10 µM [2]: 24%
inhibition of growth at 10 µM [3]: 23%
inhibition of growth at 10 µM [4]: 35%
inhibition of growth at 10 µM [5]: 27%
inhibition of growth at 10 µM [6]: 55%
inhibition of growth at 10 µM [7]: 15%
inhibition of growth at 10 µM [9]: 23%
inhibition of growth at 10 µM [10]: 19%
inhibition of growth at 10 µM [11]: 42%
inhibition of growth at 10 µM [12]: 40%
inhibition of growth at 10 µM [13]: 35%
IC50 [14]: 67.1 µM
inhibition of growth at 10 µM [15]: 35%
inhibition of growth at 10 µM [16]: 29%
inhibition of growth at 10 µM [17]: 46%
inhibition of growth at 10 µM [18]: 22%
inhibition of growth at 10 µM [19]: 13%
inhibition of growth at 10 µM [20]: 12%
inhibition of growth at 10 µM [21]: 35%
inhibition of growth at 10 µM [22]: 11%
inhibition of growth at 10 µM [23]: 22%
inhibition of growth at 10 µM [24]: 34%
inhibition of growth at 10 µM [25]: 18%
inhibition of growth at 10 µM [26]: 22%
inhibition of growth at 10 µM [27]: 15%
inhibition of growth at 10 µM [28]: 32%
inhibition of growth at 10 µM [29]: 11%
inhibition of growth at 10 µM [30]: 22%
inhibition of growth at 10 µM [31]: 53%
inhibition of growth at 10 µM [32]: 37%
inhibition of growth at 10 µM [33]: 14%
inhibition of growth at 10 µM [34]: 14%
inhibition of growth at 10 µM [35]: 45%
inhibition of growth at 10 µM [36]: 12%
inhibition of growth at 10 µM [37]: 37%
inhibition of growth at 10 µM [38]: 19%
inhibition of growth at 10 µM [39]: 37%
inhibition of growth at 10 µM [40]: 31%
inhibition of growth at 10 µM [41]: 15%
inhibition at 10 µM [42]: 16%
inhibition of growth at 10 µM [43]: 19%
IC50 [44]: 13.2 µM
